One experiment deals with MDM2 (Homo sapiens (Human), UniProt Q00987). Description: In vitro MDM2 HTRF assay (inhibition of p53-MDM2 interaction). The format is binding. The note with it: GST-MDM2 / biotinylated p53 peptide. For orientation: In TR-FRET formats the signal depends on donor and acceptor labels being close together.
Experiment [1] relates to BCL-2-dependent acute lymphoblastic leukemia (ALL) cell line RS4;11 overexpressing Bcl-2 G101V. Nature of the experiment: cells. Particulars: Homo sapiens, RS4-11; about 72 hours, ATPlite luminescence; read-out: RS4;11-G101V IC50. The format is cell-based. The protocol: Biological Example 2: In vitro Anti-proliferation Assay in BCL-2-dependent acute lymphoblastic leukemia (ALL) cell line RS4; 11 overexpressing Bcl-2 G101V
Cell antiproliferation was assayed by PerkinElmer ATPlite™ Luminescence Assay System. Briefly, the various test cancer cell lines were plated at a density of about 1×10^4 cells per well in Costar 96-well plates, and were incubated with different concentrations of compounds for about 72 hours in medium supplemented with 5% FBS or 10% normal human serum (NHS). One lyophilized substrate solution vial was then reconstituted by adding 5 mL of substrate buffer solution, and was agitated gently until the solution was homogeneous. About 50 μL of mammalian cell lysis solution was added to 100 μL of cell suspension per well of a microplate, and the plate was shaken for about five minutes in an orbital shaker at −700 rpm. This procedure was used to lyse the cells and to stabilize the ATP. Next, 50 μL substrate solution was added to the wells and microplate was shaken for five minutes in an orbital shaker at −700 rpm. Finally, the luminescence was measured by a PerkinElmer TopCount® Microplate Scintillation Counter. Such assays, carried out with a range of doses of test compounds, allowed the determination of the cellular anti-antiproliferative IC50 of the compounds of the present invention.
Background: ATP-based viability assays read luminescence as a measure of living cells.

Chain of MDM2 (Q00987 whole entry): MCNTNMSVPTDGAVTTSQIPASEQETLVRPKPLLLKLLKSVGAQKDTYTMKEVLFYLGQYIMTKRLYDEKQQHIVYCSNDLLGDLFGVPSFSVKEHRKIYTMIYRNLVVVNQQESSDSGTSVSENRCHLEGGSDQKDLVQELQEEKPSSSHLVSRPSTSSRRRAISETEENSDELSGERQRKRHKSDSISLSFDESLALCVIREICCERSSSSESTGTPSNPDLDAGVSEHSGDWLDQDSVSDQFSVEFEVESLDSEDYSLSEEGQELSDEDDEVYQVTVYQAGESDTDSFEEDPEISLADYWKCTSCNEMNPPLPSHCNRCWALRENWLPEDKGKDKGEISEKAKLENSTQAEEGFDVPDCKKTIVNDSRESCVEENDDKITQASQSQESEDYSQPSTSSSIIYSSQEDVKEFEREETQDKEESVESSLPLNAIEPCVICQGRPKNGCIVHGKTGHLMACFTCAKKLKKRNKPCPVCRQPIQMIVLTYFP

As to `COc1cc(C(=O)N2CCC[C@H](CC#Cc3cccc4c3CN(C3CCC(=O)NC3=O)C4=O)C2)ccc1NC(=O)[C@@H]1N[C@@H](CC(C)(C)C)[C@@]2(CNc3cc(Cl)ccc32)[C@H]1c1cccc(Cl)c1F` (stereo partly drawn) [Example 24, (2′S,3S,4′S,5′R)-6-chloro-4′-(3-chloro-2-fluorophenyl)-N-(4-((3R)-3-(3-(2-(2,6-dioxopiperidin-3-yl)-1-oxoisoindolin-4-yl)prop-2-yn-1-yl)piperidine-1-carbonyl)-2-methoxyphenyl)-2′-neopentylspiro[indoline-3,3′-pyrrolidine]-5′-carboxamide], the IC50 came out at 2.97 nM on MDM2 and 21.1 nM in experiment [1].

Consider `COc1cc(C(=O)N2CCC[C@@H](CC#Cc3cccc4c3CN(C3CCC(=O)NC3=O)C4=O)C2)ccc1NC(=O)[C@@H]1N[C@@H](CC(C)(C)C)[C@@]2(CNc3cc(Cl)ccc32)[C@H]1c1cccc(Cl)c1F` (stereo partly drawn) [Example 25, (2′S,3S,4′S,5′R)-6-chloro-4′-(3-chloro-2-fluorophenyl)-N-(4-((3S)-3-(3-(2-(2,6-dioxopiperidin-3-yl)-1-oxoisoindolin-4-yl)prop-2-yn-1-yl)piperidine-1-carbonyl)-2-methoxyphenyl)-2′-neopentylspiro[indoline-3,3′-pyrrolidine]-5′-carboxamide], for which the IC50 on MDM2 was 3.72 nM; in experiment [1] it was 21.6 nM.

Regarding `COc1cc(N2CCC([C@@H]3C[C@H]3C#Cc3cccc4c3CN(C3CCC(=O)NC3=O)C4=O)CC2)ccc1NC(=O)[C@@H]1N[C@@H](CC(C)(C)C)[C@@]2(CNc3cc(Cl)ccc32)[C@H]1c1cccc(Cl)c1F` (stereo partly drawn) [Example 26, (2′S,3S,4′S,5′R)-6-chloro-4′-(3-chloro-2-fluorophenyl)-2′-(2,2-dimethylpropyl)-N-(4-{4-[(1S,2R)-2-{2-[2-(2,6-dioxopiperidin-3-yl)-1-oxo-3H-isoindol-4-yl]ethynyl}cyclopropyl]piperidin-1-yl}-2-methoxyphenyl)-1,2-dihydrospiro[indole-3,3′-pyrrolidine]-5′-carboxamide], the IC50 on MDM2 is 46.8 nM; in experiment [1], 448 nM.

As to `COc1cc(N2CCC([C@H]3C[C@@H]3C#Cc3cccc4c3CN(C3CCC(=O)NC3=O)C4=O)CC2)ccc1NC(=O)[C@@H]1N[C@@H](CC(C)(C)C)[C@@]2(CNc3cc(Cl)ccc32)[C@H]1c1cccc(Cl)c1F` (stereo partly drawn) [Example 27, (2′S,3S,4′S,5′R)-6-chloro-4′-(3-chloro-2-fluorophenyl)-2′-(2,2-dimethylpropyl)-N-(4-{4-[(1R,2S)-2-{2-[2-(2,6-dioxopiperidin-3-yl)-1-oxo-3H-isoindol-4-yl]ethynyl}cyclopropyl]piperidin-1-yl}-2-methoxyphenyl)-1,2-dihydrospiro[indole-3,3′-pyrrolidine]-5′-carboxamide], the IC50 against MDM2 is 16.5 nM; in experiment [1], more than 1000 nM.

With `COc1cc(C(=O)N[C@H]2CCC[C@@H](C#Cc3cccc4c3CN(C3CCC(=O)NC3=O)C4=O)C2)ccc1NC(=O)[C@@H]1N[C@@H](CC(C)(C)C)[C@@]2(CNc3cc(Cl)ccc32)[C@H]1c1cccc(Cl)c1F` (stereo partly drawn) [Example 32, (2′S,3S,4′S,5′R)-6-chloro-4′-(3-chloro-2-fluorophenyl)-2′-(2,2-dimethylpropyl)-N-(4-{[(1S,3R)-3-{2-[2-(2,6-dioxopiperidin-3-yl)-1-oxo-3H-isoindol-4-yl]ethynyl}cyclohexyl]carbamoyl}-2-methoxyphenyl)-1,2-dihydrospiro[indole-3,3′-pyrrolidine]-5′-carboxamide], the IC50 against MDM2 came to 2.59 nM; in experiment [1] it was 83.2 nM.

Regarding `COc1cc(C(=O)N[C@@H]2CCC[C@H](C#Cc3cccc4c3CN(C3CCC(=O)NC3=O)C4=O)C2)ccc1NC(=O)[C@@H]1N[C@@H](CC(C)(C)C)[C@@]2(CNc3cc(Cl)ccc32)[C@H]1c1cccc(Cl)c1F` (stereo partly drawn) [Example 33, (2′S,3S,4′S,5′R)-6-chloro-4′-(3-chloro-2-fluorophenyl)-2′-(2,2-dimethylpropyl)-N-(4-{[(1R,3S)-3-{2-[2-(2,6-dioxopiperidin-3-yl)-1-oxo-3H-isoindol-4-yl]ethynyl}cyclohexyl]carbamoyl}-2-methoxyphenyl)-1,2-dihydrospiro[indole-3,3′-pyrrolidine]-5′-carboxamide], the IC50 against MDM2 worked out at 2.29 nM; in experiment [1] it was 104 nM.

As for `COc1cc(C(=O)N[C@@H]2CCC[C@@H](C#Cc3cccc4c3CN(C3CCC(=O)NC3=O)C4=O)C2)ccc1NC(=O)[C@@H]1N[C@@H](CC(C)(C)C)[C@@]2(CNc3cc(Cl)ccc32)[C@H]1c1cccc(Cl)c1F` (stereo partly drawn) [Example 34, (2′S,3S,4′S,5′R)-6-chloro-4′-(3-chloro-2-fluorophenyl)-2′-(2,2-dimethylpropyl)-N-(4-{[(1R,3R)-3-{2-[2-(2,6-dioxopiperidin-3-yl)-1-oxo-3H-isoindol-4-yl]ethynyl}cyclohexyl]carbamoyl}-2-methoxyphenyl)-1,2-dihydrospiro[indole-3,3′-pyrrolidine]-5′-carboxamide], the IC50 against MDM2 was determined as 2 nM; in experiment [1] it was 122 nM.

With `COc1cc(C(=O)N[C@H]2CCC[C@H](C#Cc3cccc4c3CN(C3CCC(=O)NC3=O)C4=O)C2)ccc1NC(=O)[C@@H]1N[C@@H](CC(C)(C)C)[C@@]2(CNc3cc(Cl)ccc32)[C@H]1c1cccc(Cl)c1F` (stereo partly drawn) [Example 35, (2′S,3S,4′S,5′R)-6-chloro-4′-(3-chloro-2-fluorophenyl)-2′-(2,2-dimethylpropyl)-N-(4-{[(1S,3S)-3-{2-[2-(2,6-dioxopiperidin-3-yl)-1-oxo-3H-isoindol-4-yl]ethynyl}cyclohexyl]carbamoyl}-2-methoxyphenyl)-1,2-dihydrospiro[indole-3,3′-pyrrolidine]-5′-carboxamide], the IC50 stood at 3.74 nM against MDM2 and 82.7 nM in experiment [1].

For `COc1cc(C(=O)N2CCCC[C@@H]2CCC#Cc2cccc3c2CN([C@@H]2CCC(=O)NC2=O)C3=O)ccc1NC(=O)[C@@H]1N[C@@H](CC(C)(C)C)[C@@]2(CNc3cc(Cl)ccc32)[C@H]1c1cccc(Cl)c1F` [Example 36, (2′S,3S,4′S,5′R)-6-chloro-4′-(3-chloro-2-fluorophenyl)-2′-(2,2-dimethylpropyl)-N-{4-[(2R)-2-(4-{2-[(3R)-2,6-dioxopiperidin-3-yl]-1-oxo-3H-isoindol-4-yl}but-3-yn-1-yl)piperidine-1-carbonyl]-2-methoxyphenyl}-1,2-dihydrospiro[indole-3,3′-pyrrolidine]-5′-carboxamide], the IC50 against MDM2 was found to be 2.03 nM; in experiment [1], 35.4 nM.

In the case of `COc1cc(C(=O)N2CCCC[C@@H]2CCC#Cc2cccc3c2CN([C@H]2CCC(=O)NC2=O)C3=O)ccc1NC(=O)[C@@H]1N[C@@H](CC(C)(C)C)[C@@]2(CNc3cc(Cl)ccc32)[C@H]1c1cccc(Cl)c1F` [Example 37, (2′S,3S,4′S,5′R)-6-chloro-4′-(3-chloro-2-fluorophenyl)-2′-(2,2-dimethylpropyl)-N-{4-[(2R)-2-(4-{2-[(3S)-2,6-dioxopiperidin-3-yl]-1-oxo-3H-isoindol-4-yl}but-3-yn-1-yl)piperidine-1-carbonyl]-2-methoxyphenyl}-1,2-dihydrospiro[indole-3,3′-pyrrolidine]-5′-carboxamide], the values for the IC50 (at MDM2; in experiment [1]) were 1.95 nM and 34.4 nM, respectively.

The values are drawn from patent US20250073340A1, “SPIROCYCLIC MDM2 MODULATOR AND USES THEREOF” (Newave Pharmaceutical Inc., priority 2021, published 2025).
